# From patent US20220000110A1, “COMPOSITIONS COMPRISING PYRIDINE CARBOXYLATE HERBICIDES AND CELLULOSE BIOSYNTHESIS INHIBITOR HERBICIDES” (priority 2018, published 2022)
# Tests used:
# Assay in all cases: Greenhouse postemergence herbicidal effect, visual injury after 20-22 d
# Assay type in all cases: in vivo
# [1] = test system: Digitaria sanguinalis (large crabgrass); conditions: DIGSA
# Description: (§1) Greenhouse Trial Methodology—Evaluation of Postemergence Herbicidal Effect
# (§2) Seeds of the desired test plant species were planted in a 90:10% v/v (volume/volume) mixture of PRO-MIX® BX (Premier Tech Horticulture, Quakertown, Pa., USA) and PROFILE® GREENS GRADE™ (Profile Products LLC, Buffalo Grove, Ill., USA) planting mixture, which typically has a pH of 5.2 to 6.2 and an organic matter content of at least 50 percent, in plastic pots with a surface area of 103.2 square centimeters (cm^2). In some aspects, to help ensure good germination and healthy plants, a fungicide treatment and/or other chemical or physical treatment was applied. The plants were grown for 7-36 days (d) in a greenhouse with an approximate 14-hour (h) photoperiod which was maintained at about 23° C. during the day and 22° C. during the night. Nutrients and water were added on a regular basis and supplemental lighting was provided with overhead metal halide 1000-Watt lamps as necessary. The plants were employed for testing when they reached the second or third true leaf stage.
# (§3) Emulsifiable concentrates of each of each pyridine carboxylate herbicide (Compound A or Compound B) were prepared at 100 grams acid equivalent per liter (g ae/L). The emulsifiable concentrates also included a safener, at 120 grams active ingredient per liter (g ai/L). An aliquot of each emulsifiable concentrate was placed in a 25 mL glass vial and diluted with an aqueous mixture of 1.25% (v/v) ACTIROB® B esterified rapeseed oil (Bayer Crop Science, Research Triangle Park, N.C., USA) or MSO® Concentrate with LECI-TECH® methylated soybean oil (Loveland Products, Loveland, Colo., USA) to obtain concentrated stock solutions at the highest application rate for each herbicide, based upon a 12 milliliter (mL) application volume at a rate of 187 liters per hectare (L/ha). The concentrated stock solutions were further diluted with an aqueous mixture of 1.25% v/v ACTIROB® B or MSO® Concentrate with LECI-TECH® to obtain stock solutions at reduced application rates for each herbicide. Spray solutions of the herbicide combinations (Compound A or Compound B plus the CBI herbicide) were prepared by adding weighed amounts or aliquots of the CBI herbicide to the stock solutions of Compound A or Compound B to form 12-mL spray solutions in two-way combinations.
# (§4) The spray solutions were applied to the plant material with an overhead Mandel track sprayer equipped with 8002E nozzles calibrated to deliver 187 L/ha over an application area of 0.503 square meters (m^2) at a spray height of 18 inches (43 centimeters (cm)) above the average plant canopy. Control plants were sprayed in the same manner with the solvent blank. All pyridine carboxylate herbicide (component a) application rates are given as “g ae/ha” and all CBI herbicide (component b) application rates are given as “g ai/ha.”
# (§5) The treated plants and control plants were placed in a greenhouse as described above and watered by sub-irrigation to prevent wash-off of the test compounds. After 20-22 d, the condition of the test plants as compared with that of the control plants was determined visually and scored on a scale of 0 to 100 percent where 0 corresponds to no injury and 100 corresponds to complete kill.
# [2] = test system: Salsola kali (Russian thistle); conditions: SASKR
# Description: as §1, §2, §3, §4, §5
# [3] = test system: Sorghum vulgare (grain sorghum); conditions: Table 1, SORVU
# Description: as §1, §2, §3, §4, §5
# [4] = test system: Rumex obtusifolius (broad-leaf dock); conditions: Table 1, RUMOB
# Description: as §1, §2, §3, §4, §5
# [5] = test system: Amaranthus retroflexus (pigweed); conditions: AMARE
# Description: as §1, §2, §3, §4, §5
# [6] = test system: Echinochloa crus-galli (barnyard grass); conditions: ECHCG
# Description: as §1, §2, §3, §4, §5
# [7] = test system: Setaria faberi (giant foxtail); conditions: SETFA
# Description: as §1, §2, §3, §4, §5
# [8] = test system: Chenopodium album L. (common lambsquarters); conditions: CHEAL
# Description: as §1, §2, §3, §4, §5
# Glycine max (soybean) = conditions: Table 1, GLXMA
# Description: as §1, §2, §3, §4, §5
# [9] = test system: Cyperus esculentus (nutsedge); conditions: Table 1, CYPES
# Description: as §1, §2, §3, §4, §5
# Kochia scoparia (kochia) = conditions: KCHSC
# Description: as §1, §2, §3, §4, §5
# [10] = test system: Brassica napus (spring rape); conditions: BRSNN
# Description: as §1, §2, §3, §4, §5
# [11] = test system: Lolium multiflorum (Italian rye grass); conditions: Table 2, LOLMU
# Description: as §1, §2, §3, §4, §5
smiles,measurement,setting,value
"N#CCOC(=O)c1nc(-c2ccc3cc[nH]c3c2F)c(F)c(N)c1Cl [Compound A, cyanomethyl 4-amino-3-chloro-5-fluoro-6-(7-fluoro-1H-indol-6-yl)pyridine-2-carboxylate]",Obs % visual injury,"[1]; Table 1, Compound A 7.5 g/ha",35%
same,Obs % visual injury,"[1]; Table 1, Compound A 10 g/ha",38%
same,Obs % visual injury,"[1]; Table 2, Compound A 7.5 g/ha",45%
same,Obs % visual injury,"[1]; Table 2, Compound A 10 g/ha",25%
same,Obs % visual injury,"[2]; Table 3, Compound A 7.5 g/ha",55%
same,Obs % visual injury,"[2]; Table 3, Compound A 10 g/ha",58%
same,Obs % visual injury,"[2]; Table 3, Compound A 15 g/ha",65%
same,Obs % visual injury,"[2]; Table 4, Compound A 7.5 g/ha",55%
same,Obs % visual injury,"[2]; Table 4, Compound A 10 g/ha",58%
same,Obs % visual injury,"[2]; Table 4, Compound A 15 g/ha",65%
same,Obs % visual injury,[3]; Compound A 7.5 g/ha,0%
same,Obs % visual injury,[3]; Compound A 10 g/ha,0%
same,Obs % visual injury,[4]; Compound A 7.5 g/ha,20%
same,Obs % visual injury,[4]; Compound A 10 g/ha,13%
same,Obs % visual injury,"[5]; Table 1, Compound A 7.5 g/ha",88%
same,Obs % visual injury,"[5]; Table 1, Compound A 10 g/ha",88%
same,Obs % visual injury,"[5]; Table 3, Compound A 7.5 g/ha",78%
same,Obs % visual injury,"[5]; Table 3, Compound A 10 g/ha",78%
same,Obs % visual injury,"[5]; Table 3, Compound A 15 g/ha",83%
same,Obs % visual injury,"[5]; Table 4, Compound A 7.5 g/ha",78%
same,Obs % visual injury,"[5]; Table 4, Compound A 10 g/ha",78%
same,Obs % visual injury,"[5]; Table 4, Compound A 15 g/ha",83%
same,Obs % visual injury,"[6]; Table 1, Compound A 7.5 g/ha",88%
same,Obs % visual injury,"[6]; Table 1, Compound A 10 g/ha",80%
same,Obs % visual injury,"[6]; Table 2, Compound A 7.5 g/ha",73%
same,Obs % visual injury,"[6]; Table 2, Compound A 10 g/ha",78%
same,Obs % visual injury,"[7]; Table 1, Compound A 7.5 g/ha",78%
same,Obs % visual injury,"[7]; Table 1, Compound A 10 g/ha",80%
same,Obs % visual injury,"[7]; Table 2, Compound A 7.5 g/ha",70%
same,Obs % visual injury,"[7]; Table 2, Compound A 10 g/ha",70%
same,Obs % visual injury,"[8]; Table 1, Compound A 7.5 g/ha",98%
same,Obs % visual injury,"[8]; Table 1, Compound A 10 g/ha",93%
same,Obs % visual injury,"[8]; Table 3, Compound A 7.5 g/ha",70%
same,Obs % visual injury,"[8]; Table 3, Compound A 10 g/ha",78%
same,Obs % visual injury,"[8]; Table 3, Compound A 15 g/ha",83%
same,Obs % visual injury,"[8]; Table 4, Compound A 7.5 g/ha",70%
same,Obs % visual injury,"[8]; Table 4, Compound A 10 g/ha",78%
same,Obs % visual injury,"[8]; Table 4, Compound A 15 g/ha",83%
same,Obs % visual injury,Glycine max (soybean); Compound A 7.5 g/ha,80%
same,Obs % visual injury,Glycine max (soybean); Compound A 10 g/ha,90%
same,Obs % visual injury,[9]; Compound A 7.5 g/ha,30%
same,Obs % visual injury,[9]; Compound A 10 g/ha,8%
same,Obs % visual injury,"Kochia scoparia (kochia); Table 1, Compound A 7.5 g/ha",75%
same,Obs % visual injury,"Kochia scoparia (kochia); Table 1, Compound A 10 g/ha",73%
same,Obs % visual injury,"Kochia scoparia (kochia); Table 2, Compound A 7.5 g/ha",60%
same,Obs % visual injury,"Kochia scoparia (kochia); Table 2, Compound A 10 g/ha",65%
same,Obs % visual injury,"Kochia scoparia (kochia); Table 3, Compound A 7.5 g/ha",70%
same,Obs % visual injury,"Kochia scoparia (kochia); Table 3, Compound A 10 g/ha",70%
same,Obs % visual injury,"Kochia scoparia (kochia); Table 3, Compound A 15 g/ha",70%
same,Obs % visual injury,"Kochia scoparia (kochia); Table 4, Compound A 7.5 g/ha",70%
same,Obs % visual injury,"Kochia scoparia (kochia); Table 4, Compound A 10 g/ha",70%
same,Obs % visual injury,"Kochia scoparia (kochia); Table 4, Compound A 15 g/ha",70%
same,Obs % visual injury,"[10]; Table 1, Compound A 7.5 g/ha",65%
same,Obs % visual injury,"[10]; Table 1, Compound A 10 g/ha",65%
same,Obs % visual injury,"[10]; Table 2, Compound A 7.5 g/ha",73%
same,Obs % visual injury,"[10]; Table 2, Compound A 10 g/ha",83%
same,Obs % visual injury,[11]; Compound A 7.5 g/ha,0%
same,Obs % visual injury,[11]; Compound A 10 g/ha,0%
